Calls of active or inactive are those of the source. No cut-off for these calls is given here.
Columns and labels:
THP-1 [1] = assay: Cytotoxicity against human THP-1 cells assessed as cell viability at 10 uM incubated for 4 hrs by PrestoBlue cell viability assay; format: toxicity, cell-based; details: thp-1, 4 h
THP-1 [2] = assay: Immunomodulatory activity in human THP-1 cells assessed as reduction in LPS-induced TNF-alpha production at 10 uM incubated for 4 hrs by ELISA assay; format: functional, cell-based
PBMC = assay: Immunomodulatory activity in multiple sclerosis pateint-derived human PBMC cells assessed as reduction in LPS-induced TNF-alpha production in CD14+ monocytes at 10 uM incubated for 4 hrs by flow cytometry assay; format: functional, cell-based

| SMILES | Activity (THP-1 [1]) | Activity (THP-1 [2]) | Activity (PBMC) |
| --- | --- | --- | --- |
| COc1cc(O)cc2c1-c1cc(-c3c(O)cc(OC)c4c3CCc3cc(O)ccc3-4)c(O)cc1CC2 | Non-toxic |  |  |
| O=c1c2ccccc2ncn1-c1ccccc1O | Non-toxic |  |  |
| COc1cc(O)cc(CCc2ccc(O)c(OC)c2)c1 [GIGANTOL] | Non-toxic | Active |  |
| COc1cc(O)c2c(c1)CCc1cc(O)c(-c3c(O)cc(OC)c4c3CCc3cc(O)ccc3-4)cc1-2 | Non-toxic | Active |  |
| COc1cccc(CCc2cc(OC)cc(O)c2-c2cc3c(cc2O)CCc2cc(OC)cc(O)c2-3)c1 | Non-toxic | Active; Compound Exhibited The Most Pronounced Activity | Active |
| COc1cc(O)c2c(c1)CCc1cc(O)ccc1-2 |  | Active |  |
| COc1cc(C2Oc3cc(OC)c4c(c3C2COC(C)=O)CCc2cc(O)ccc2-4)ccc1O (stereo unspecified) | Non-toxic |  |  |
| COc1cc(O)cc2c1-c1ccc(O)cc1CC2 | Non-toxic | inactive |  |
| COc1cc([C@H]2Oc3cc4c(cc3[C@@H]2CO)-c2c(cc(O)cc2OC)CC4)ccc1O | Non-toxic |  |  |
| COc1cc(O)cc(CCc2cccc(O)c2)c1 [BATATASIN III] | Non-toxic | Active |  |
